Tests used:
EGFR (L858R) = biological target: T1, EGFR (L858R) (Homo sapiens, UniProt P00533, L858R); assay: EGFR target modulation in engineered NIH3T3 cell lines (phospho-EGFR AlphaLISA); assay type: cell-based; details: NIH3T3 cells expressing human EGFR L858R; 3 hours compound
T1 construct: host or cells: NIH3T3
Experimental: (§1) EGFR Target Modulation in Engineered NIH3T3 Cell Lines
(§2) NIH3T3 cell lines expressing human EGFR (WT, L858R, and L858RT790M) (obtained from Matthew Meyerson's Lab at DFCI) were maintained in 10% FBS/DMEM supplemented with 100 μg/ml Penicillin/Streptomycin (Hyclone #SV30010) and 2 μg/ml Puromycin. The cells were harvested with 0.05% Trypsin/EDTA (Hyclone #SH30236.01), re-suspended in 5% FBS/DMEM Pen/Strep without Puromycin and plated at 9,000 cells per well in 50 μl of media in a 384-well black plate with clear bottoms (Greiner #789068G). The cells were allowed to incubate overnight in a 37° C., 5% CO2 humidified tissue culture incubator. A 12-point test compound curve was prepared by serial diluting a 10 μM stock 1:3 in DMSO in a 384-well compound plate (Greiner #789201L). The serial diluted compounds were transferred to the plate containing cells by using a 50 nl Pin Head device (Perkin Elmer) and the cells were placed back in the incubator for 3 hours. Only the EGFR WT-expressing cells were induced with 50 ng/ml EGF (Preprotech #AF-100-15) for 5 minutes before lysis. The media was removed and cells were lysed in 25 μl of Lysis buffer containing protease and phosphatase inhibitors (1% Triton X-100, 20 mM Tris, pH 7.5, 1 mM EDTA, 1 mM EGTA, 150 mM NaCl, 1× complete cocktail inhibitor (Roche #11 697 498 001), 1× Phosphatase Inhibitor Cocktail Set II and Set III (Sigma #P5726 and #P0044)). The plates were shaken at 4° C. for 5 minutes with foil top at maximum speed. An aliquot of 5 μl from each well was transferred to ProxiPlate™ 384-well Plus plates (PE #6008289). The plates were sealed with a foil top and frozen at −80° C. and thawed when needed.
(§3) The frozen aliquots were thawed and briefly centrifuged. All antibodies and beads were diluted in 1× AlphaLISA HiBlock Buffer (PE #AL004C). Biotinylated anti-phospho-EGFR (Y1068) (Cell Signaling #4031) was incubated with the lysate for 1 hour at room temperature at 1 nM final concentration. Goat anti-total EGFR (R&D Systems #AF231) was added and allowed to equilibrate for 1 hour at room temperature at 1 nM final concentration. Then, 10 μl of mixed beads (AlphaScreen Streptavidin Donor Beads (PE #6760002S) and AlphaLISA anti-goat IgG Acceptor Beads (PE #AL107C)) was equilibrated for 1.5 hours before reading on EnVision plate reader using the built-in settings for AlphaScreen.
(§4) Cells untreated (L858R and L858RT790M) or EGF-induced (WT) were set to 100% maximum response. For a negative control, 10 μM HKI-272 was used to normalize data to 0% of maximum response. With these parameters, the IC50's for each compound in each cell line was calculated using non-linear curve fitting analysis.

EGFR (WT) = biological target: T2, EGFR (WT) (Homo sapiens, UniProt P00533); assay: as above; assay type: cell-based; details: NIH3T3 cells expressing human EGFR WT; 3 hours compound; induced with 50 ng/ml EGF
T2 construct: host or cells: NIH3T3
Experimental: as §1, §2, §3, §4

EGFR(L858R/T790M) [1] = biological target: T3, EGFR(L858R/T790M) (Homo sapiens, UniProt P00533, L858R/T790M); assay: as above; assay type: cell-based; design: host or cells: NIH3T3; details: NIH3T3 cells expressing human EGFR L858R/T790M; 3 hours compound
Experimental: as §1, §2, §3, §4
Target sequence in this assay (P00533 25-1210 T790M/L858R): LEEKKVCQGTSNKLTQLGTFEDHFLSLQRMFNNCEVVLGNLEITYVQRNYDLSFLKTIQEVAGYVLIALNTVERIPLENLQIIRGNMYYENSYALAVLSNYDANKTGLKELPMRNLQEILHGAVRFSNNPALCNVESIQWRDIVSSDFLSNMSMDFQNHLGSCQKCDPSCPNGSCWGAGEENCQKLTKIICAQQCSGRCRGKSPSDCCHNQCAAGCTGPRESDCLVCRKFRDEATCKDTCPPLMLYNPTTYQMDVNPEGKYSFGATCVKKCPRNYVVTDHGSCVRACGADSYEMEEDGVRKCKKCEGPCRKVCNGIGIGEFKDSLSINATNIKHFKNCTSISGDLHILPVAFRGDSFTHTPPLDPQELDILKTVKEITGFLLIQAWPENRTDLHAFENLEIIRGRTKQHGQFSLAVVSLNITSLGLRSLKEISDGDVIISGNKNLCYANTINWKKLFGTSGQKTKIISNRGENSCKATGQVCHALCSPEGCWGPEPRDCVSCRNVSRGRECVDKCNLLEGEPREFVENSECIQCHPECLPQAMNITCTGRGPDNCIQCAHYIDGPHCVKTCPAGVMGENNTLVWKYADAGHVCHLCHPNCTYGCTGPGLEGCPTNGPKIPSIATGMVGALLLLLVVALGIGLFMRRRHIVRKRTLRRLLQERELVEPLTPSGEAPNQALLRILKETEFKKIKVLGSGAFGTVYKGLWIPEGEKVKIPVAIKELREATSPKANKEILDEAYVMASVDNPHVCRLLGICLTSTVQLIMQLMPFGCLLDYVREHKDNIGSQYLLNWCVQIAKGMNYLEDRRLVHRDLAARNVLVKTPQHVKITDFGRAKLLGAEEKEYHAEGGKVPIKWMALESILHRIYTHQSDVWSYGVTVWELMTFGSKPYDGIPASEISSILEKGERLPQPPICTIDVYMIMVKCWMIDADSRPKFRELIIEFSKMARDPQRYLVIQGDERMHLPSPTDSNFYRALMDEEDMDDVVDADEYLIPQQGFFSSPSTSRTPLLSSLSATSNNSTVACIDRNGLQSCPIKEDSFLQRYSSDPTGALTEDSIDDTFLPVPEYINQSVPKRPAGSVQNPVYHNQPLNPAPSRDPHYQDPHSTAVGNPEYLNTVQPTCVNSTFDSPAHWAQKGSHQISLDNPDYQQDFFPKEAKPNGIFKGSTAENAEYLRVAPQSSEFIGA

EGFR(L858R/T790M) [2] = biological target: T3, EGFR(L858R/T790M); assay: EGFR biochemical assay (HTRF), IC50 determination; design: purchased from Carna (GST-a.a. 669-1210); purchased Carna; details: 10 μM ATP
Experimental: All EGFR biochemical assays were carried out by HTRF method. The EGFR(L858RT790M) enzyme were purchased from Carna (GST-a.a. 669-1210). The substrate peptide Biotin-TK-peptide was purchased from Cis-Bio. The reaction mixtures contained 1 μM peptide substrate, 10 μM ATP, and 0.036 nM EGFR(L858RT790M) in the reaction buffer (50 mM HEPES pH 7.1, 10 mM MgCl2, 0.01% BSA, 1 mM TCEP and 0.1 mM Na3VO4) at a final volume of 10 μL. All reactions were carried out at room temperature in white ProxiPlate™ 384-well Plus plates (PerkinElmer) and were quenched with 5 μL of 0.2 M EDTA at 60 min Five μL of the detection reagents (2.5 ng PT66K and 0.05 μg SAXL per well) were added, the plates were incubated at room temperature for 1 h and then read in EnVision reader. […] For no-preincubation condition, the compounds were added to the assay solution containing ATP and peptide, and the reaction was initiated by addition of enzyme. For pre-incubation conditions, the compounds were added to the assay solution containing enzyme and peptide, and pre-incubated at room temperature for desired period of time, then the reaction was initiated by addition of ATP.
Target sequence in this assay (P00533 669-1210 T790M/L858R): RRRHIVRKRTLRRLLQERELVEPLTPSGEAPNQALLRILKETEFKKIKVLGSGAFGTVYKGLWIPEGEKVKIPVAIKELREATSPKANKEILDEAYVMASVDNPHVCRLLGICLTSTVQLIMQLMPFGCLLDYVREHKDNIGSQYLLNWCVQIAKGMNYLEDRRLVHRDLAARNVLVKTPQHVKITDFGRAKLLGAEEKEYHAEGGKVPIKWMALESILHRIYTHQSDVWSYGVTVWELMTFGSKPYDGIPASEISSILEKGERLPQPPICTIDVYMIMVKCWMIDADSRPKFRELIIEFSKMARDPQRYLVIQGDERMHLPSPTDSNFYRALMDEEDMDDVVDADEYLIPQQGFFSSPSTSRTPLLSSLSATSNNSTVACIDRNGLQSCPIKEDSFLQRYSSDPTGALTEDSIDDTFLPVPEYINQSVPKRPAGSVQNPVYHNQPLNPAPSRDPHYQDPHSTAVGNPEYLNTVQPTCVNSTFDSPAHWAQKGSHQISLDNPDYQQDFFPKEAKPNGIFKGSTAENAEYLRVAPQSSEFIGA

[3] = EGFR (L858R/T790M) IC50 (μM) 90 min pre-incubation, 90 min pre-incubation
[4] = no pre-incubation, read-out: EGFR (L858R/T790M) IC50 (μM) No pre-incubation

T2 sequence (P00533 25-1210): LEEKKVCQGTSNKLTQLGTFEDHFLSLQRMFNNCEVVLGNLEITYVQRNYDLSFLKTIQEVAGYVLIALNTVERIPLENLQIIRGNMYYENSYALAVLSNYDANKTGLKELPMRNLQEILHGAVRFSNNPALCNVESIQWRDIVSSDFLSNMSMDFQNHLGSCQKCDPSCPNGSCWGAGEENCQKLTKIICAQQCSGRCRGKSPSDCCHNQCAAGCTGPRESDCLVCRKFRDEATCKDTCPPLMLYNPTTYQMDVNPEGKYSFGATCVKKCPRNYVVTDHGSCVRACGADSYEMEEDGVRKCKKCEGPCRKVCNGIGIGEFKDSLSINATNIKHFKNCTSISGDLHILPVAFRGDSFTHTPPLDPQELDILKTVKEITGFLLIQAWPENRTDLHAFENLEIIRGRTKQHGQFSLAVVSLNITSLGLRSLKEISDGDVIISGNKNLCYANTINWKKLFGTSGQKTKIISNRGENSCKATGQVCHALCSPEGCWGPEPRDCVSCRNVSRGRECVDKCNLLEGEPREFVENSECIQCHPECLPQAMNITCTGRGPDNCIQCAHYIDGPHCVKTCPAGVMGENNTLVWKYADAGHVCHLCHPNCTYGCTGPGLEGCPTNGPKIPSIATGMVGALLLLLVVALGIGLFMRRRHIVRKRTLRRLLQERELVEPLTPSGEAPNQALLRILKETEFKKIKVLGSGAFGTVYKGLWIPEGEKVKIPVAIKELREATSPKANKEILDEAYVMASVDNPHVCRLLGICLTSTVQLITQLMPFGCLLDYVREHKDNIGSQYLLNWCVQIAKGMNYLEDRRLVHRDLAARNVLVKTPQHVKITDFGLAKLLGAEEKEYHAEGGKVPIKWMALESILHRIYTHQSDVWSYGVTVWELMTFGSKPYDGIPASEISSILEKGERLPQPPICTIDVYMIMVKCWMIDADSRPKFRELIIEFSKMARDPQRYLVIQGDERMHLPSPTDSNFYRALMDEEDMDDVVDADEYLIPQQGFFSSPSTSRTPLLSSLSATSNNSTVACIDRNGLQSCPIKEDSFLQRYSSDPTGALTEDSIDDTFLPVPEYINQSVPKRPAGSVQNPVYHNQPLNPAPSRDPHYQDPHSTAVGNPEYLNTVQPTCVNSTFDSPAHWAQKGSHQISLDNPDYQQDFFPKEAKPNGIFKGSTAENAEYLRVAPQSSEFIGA
T1 sequence (P00533 25-1210 L858R): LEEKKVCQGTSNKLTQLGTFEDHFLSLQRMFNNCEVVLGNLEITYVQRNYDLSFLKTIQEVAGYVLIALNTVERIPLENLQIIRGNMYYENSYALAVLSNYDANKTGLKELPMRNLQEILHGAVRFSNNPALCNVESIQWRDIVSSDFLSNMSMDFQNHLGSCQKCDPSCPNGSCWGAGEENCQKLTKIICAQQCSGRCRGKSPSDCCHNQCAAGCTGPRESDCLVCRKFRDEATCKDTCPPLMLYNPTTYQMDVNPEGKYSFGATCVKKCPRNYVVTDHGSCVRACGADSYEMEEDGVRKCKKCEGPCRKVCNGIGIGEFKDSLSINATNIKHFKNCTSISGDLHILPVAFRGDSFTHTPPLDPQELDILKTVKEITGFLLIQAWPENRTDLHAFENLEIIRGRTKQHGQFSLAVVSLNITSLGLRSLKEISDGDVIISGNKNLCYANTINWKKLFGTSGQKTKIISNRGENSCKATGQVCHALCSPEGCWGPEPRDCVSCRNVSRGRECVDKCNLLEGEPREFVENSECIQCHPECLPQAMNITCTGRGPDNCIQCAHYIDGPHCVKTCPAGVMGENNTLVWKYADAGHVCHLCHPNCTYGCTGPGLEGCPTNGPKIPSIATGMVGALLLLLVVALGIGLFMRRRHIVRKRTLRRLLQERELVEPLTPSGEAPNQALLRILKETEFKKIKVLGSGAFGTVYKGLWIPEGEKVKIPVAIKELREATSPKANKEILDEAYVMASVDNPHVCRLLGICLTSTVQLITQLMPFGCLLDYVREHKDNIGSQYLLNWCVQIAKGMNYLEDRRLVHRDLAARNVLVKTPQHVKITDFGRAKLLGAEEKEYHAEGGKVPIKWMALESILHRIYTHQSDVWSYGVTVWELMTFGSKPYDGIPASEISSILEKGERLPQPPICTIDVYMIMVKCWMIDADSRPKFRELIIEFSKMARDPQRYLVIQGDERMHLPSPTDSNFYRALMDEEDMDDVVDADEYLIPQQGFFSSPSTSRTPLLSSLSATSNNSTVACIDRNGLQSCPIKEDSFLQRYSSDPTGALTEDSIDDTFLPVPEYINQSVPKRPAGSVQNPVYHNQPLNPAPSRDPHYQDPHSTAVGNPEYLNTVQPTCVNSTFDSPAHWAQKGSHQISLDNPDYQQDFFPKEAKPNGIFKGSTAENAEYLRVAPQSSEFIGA

| SMILES | IC50 (EGFR (L858R)) [µM] | IC50 (EGFR (WT)) [µM] | IC50 (EGFR(L858R/T790M) [1]) [µM] | IC50 (EGFR(L858R/T790M) [2]; [3]) [µM] | IC50 (EGFR(L858R/T790M) [2]; [4]) [µM] |
| --- | --- | --- | --- | --- | --- |
| C=CC(=O)N[C@H]1CCCC(n2c(NC(=O)c3cccc(C(F)(F)F)c3)nc3cccc(C)c32)C1 (mixture of isomers) [Example 6, trans-N-(1-(3-acrylamidocyclohexyl)-7-methyl-1H-benzo[d]imidazol-2-yl)-3-(trifluoromethyl)benzamide] | 0.69 | > 10 | 0.14 | 0.009 | 0.18 |
| C=CC(=O)N[C@@H]1CCC[C@H](n2c(NC(=O)c3cccc(C(F)(F)F)c3)nc3cccc(C)c32)C1 (racemic) [Example 7, cis-N-(1-(3-acrylamidocyclohexyl)-7-methyl-1H-benzo[d]imidazol-2-yl)-3-(trifluoromethyl)benzamide] | 0.28 | > 10 | 0.037 | 0.002 | 0.039 |
| C=CC(=O)N[C@H]1CC[C@@H](n2c(NC(=O)c3cccc(C(F)(F)F)c3)nc3cc(C)ccc32)C1 (single isomer, unassigned) [Example 9-1A] |  |  |  | 0.08 | 0.75 |
| C=CC(=O)N[C@@H]1CC[C@H](n2c(NC(=O)c3cccc(C(F)(F)F)c3)nc3cc(C)ccc32)C1 (single isomer, unassigned) [Example 9-1B] |  |  |  | 0.15 | 0.29 |
| C=CC(=O)N[C@H]1CCC[C@@H](n2c(NC(=O)c3cccc(C(F)(F)F)c3)nc3cc(C)ccc32)C1 (single isomer, unassigned) [Example 9-2A] | 0.54 | > 10 | 0.032 |  |  |
| C=CC(=O)N[C@@H]1CCC[C@H](n2c(NC(=O)c3cccc(C(F)(F)F)c3)nc3cc(C)ccc32)C1 (single isomer, unassigned) [Example 9-2B] | > 10 | > 10 | 0.4 |  |  |

Continued, values first:

| IC50 (EGFR (L858R)) [µM] | IC50 (EGFR (WT)) [µM] | IC50 (EGFR(L858R/T790M) [1]) [µM] | IC50 (EGFR(L858R/T790M) [2]; [3]) [µM] | IC50 (EGFR(L858R/T790M) [2]; [4]) [µM] | SMILES |
| --- | --- | --- | --- | --- | --- |
| 0.54 | > 10 | 0.041 |  |  | C=CC(=O)N[C@@H]1CCC[C@H](n2c(NC(=O)c3cccc(C(F)(F)F)c3)nc3cc(C)ccc32)C1 (racemic) [Example 8-1, N-{5-methyl-1-[(1S,3R)-3-(prop-2-enamido)cyclohexyl]-1H-1,3-benzodiazol-2-yl}-3-(trifluoromethyl)benzamide] |
|  |  |  | 0.15 | 0.72 | C=CC(=O)NC1CCC(n2c(NC(=O)c3cccc(C(F)(F)F)c3)nc3cc(C)ccc32)C1 (racemic) [Example 8-3, N-{5-methyl-1-[3-(prop-2-enamido)cyclopentyl]-1H-1,3-benzodiazol-2-yl}-3-(trifluoromethyl)benzamide] |
|  |  |  | 0.15 | 1.04 | C=CC(=O)Nc1ccc(-n2c(NC(=O)c3cccc(C(F)(F)F)c3)nc3cc(C)ccc32)cc1 [Example 2-11, N-{5-methyl-1-[4-(prop-2-enamido)phenyl]-1H-1,3-benzodiazol-2-yl}-3-(trifluoromethyl)benzamide] |
|  |  |  | 0.1 | 1.8 | C=CC(=O)Nc1ccccc1-n1c(NC(=O)c2cccc(C(F)(F)F)c2)nc2cc(C)ccc21 [Example 2-12, N-{5-methyl-1-[2-(prop-2-enamido)phenyl]-1H-1,3-benzodiazol-2-yl}-3-(trifluoromethyl)benzamide] |
|  |  |  | 0.101 | 0.36 | C/C=C/C(=O)Nc1cccc(-n2c(NC(=O)c3cccc(C(F)(F)F)c3)nc3cc(C)ccc32)c1 [Example 2-14, N-{1-[3-(but-2-enamido)phenyl]-5-methyl-1H-1,3-benzodiazol-2-yl}-3-(trifluoromethyl)benzamide] |
|  |  |  | 1.06 | 20 | Cc1cc(C(=O)Nc2nc3cccc(Cl)c3n2-c2cc(NC(=O)/C=C/CN(C)C)ccc2C)ccn1 [Example 2-15, (E)-N-(7-chloro-1-(5-(4-(dimethylamino)but-2-enamido)-2-methylphenyl)-1H-benzo[d]imidazol-2-yl)-2-methylisonicotinamide] |
|  |  |  | 1.07 | 9.38 | C=CC(=O)Nc1ccc(C)c(-n2c(NC(=O)c3ccnc(C)c3)nc3cccc(Cl)c32)c1 [Example 2-16, N-(1-(5-acrylamido-2-methylphenyl)-7-chloro-1H-benzo[d]imidazol-2-yl)-2-methylisonicotinamide] |
|  |  |  | 0.006 | 0.065 | C=CC(=O)Nc1cc(-n2c(NC(=O)c3ccnc(C)c3)nc3cccc(Cl)c32)ccc1C [Example 2-17, N-(1-(3-acrylamido-4-methylphenyl)-7-chloro-1H-benzo[d]imidazol-2-yl)-2-methylisonicotinamide] |
|  |  |  | 0.046 | 0.627 | C=CC(=O)Nc1cc(C)cc(-n2c(NC(=O)c3ccnc(C)c3)nc3cccc(Cl)c32)c1 [Example 2-18, N-(1-(3-acrylamido-5-methylphenyl)-7-chloro-1H-benzo[d]imidazol-2-yl)-2-methylisonicotinamide] |
|  |  |  | 0.82 | 2.64 | C=CC(=O)NCCn1c(NC(=O)c2cccc(C(F)(F)F)c2)nc2cc(C)ccc21 [Example 8-5, N-{5-methyl-1-[2-(prop-2-enamido)ethyl]-1H-1,3-benzodiazol-2-yl}-3-(trifluoromethyl)benzamide] |
|  |  |  | 0.079 | > 50 | C=CC(=O)N[C@H]1CCCCC1n1c(NC(=O)c2cccc(C(F)(F)F)c2)nc2cc(C)ccc21 (stereo partly drawn) [Example 8-6, N-{5-methyl-1-[(1R,25)-2-(prop-2-enamido)cyclohexyl]-1H-1,3-benzodiazol-2-yl}-3-(trifluoromethyl)benzamide] |
|  |  |  | 0.31 | 2.3 | C=CC(=O)N[C@@H]1CCCC[C@H]1n1c(NC(=O)c2cccc(C(F)(F)F)c2)nc2cc(C)ccc21 [Example 8-7, N-{5-methyl-1-[(1R,2R)-2-(prop-2-enamido)cyclohexyl]-1H-1,3-benzodiazol-2-yl}-3-(trifluoromethyl)benzamide] |
|  |  |  | 0.21 | 0.46 | C=CC(=O)N[C@H]1CC[C@@H](n2c(NC(=O)c3cccc(C(F)(F)F)c3)nc3cc(C)ccc32)CC1 [Example 8-8, N-{5-methyl-1-[(1S,4S)-4-(prop-2-enamido)cyclohexyl]-1H-1,3-benzodiazol-2-yl}-3-(trifluoromethyl)benzamide] |
|  |  |  | 0.57 | 0.22 | C=CC(=O)N[C@H]1CC[C@H](n2c(NC(=O)c3cccc(C(F)(F)F)c3)nc3cc(C)ccc32)CC1 [Example 8-9, N-{5-methyl-1-[(1R,4R)-4-(prop-2-enamido)cyclohexyl]-1H-1,3-benzodiazol-2-yl}-3-(trifluoromethyl)benzamide] |
